Measurements reported in the supplement of paper PMC10331698.
± gives the standard deviation of the averaged measurements.

Columns and labels:
Test in all cases: level (log10 ratio to DMSO vehicle control); higher = higher biomarker level / cell amount than vehicle control
[1] = compound: OCC(F)(F)C(F)(F)C(F)(F)C(F)F [1H,1H,5H-Perfluoropentanol] (in DMSO)
Protocol: (§1)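 BioMAP Diversity Plus panel of 12 human primary cell co-culture systems (3C, 4H, LPS, SAg, BT, BF4T, BE3C, CASM3C, HDF3CGF, KF3CT, MyoF, Mphg). Compounds were added 1 h before stimulation and left for 24 h (MyoF 48 h; BT 72 h for soluble read-outs or 6 d for IgG). Biomarkers were read by ELISA, cytotoxicity by SRB, PBMC viability and proliferation by Alamar Blue. Each well value was divided by the mean of 8 DMSO control wells on the same plate and log10 transformed; duplicate blinded samples were tested at 4 concentrations.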

[2] = compound: O=S(=O)(O)C(F)(F)C(F)(F)C(F)(F)C(F)(F)C(F)(F)C(F)(F)C(F)(F)F [Perfluoroheptanesulfonic acid] (in DMSO)
Protocol: as §1

Perfluorononanoic acid = compound: O=C(O)C(F)(F)C(F)(F)C(F)(F)C(F)(F)C(F)(F)C(F)(F)C(F)(F)C(F)(F)F [Perfluorononanoic acid] (in DMSO)
Protocol: as §1

[3] = compound: OCC(F)(F)OC(F)(F)C(F)(F)OC(F)(F)C(F)(F)OC(F)(F)CO [1H,1H,11H,11H-Perfluorotetraethylene glycol] (in DMSO)
Protocol: as §1

Octafluoroadipic acid = compound: O=C(O)C(F)(F)C(F)(F)C(F)(F)C(F)(F)C(=O)O [Octafluoroadipic acid] (in DMSO)
Protocol: as §1

[4] = compound: OCC(F)(F)C(F)(F)C(F)(F)C(F)(F)C(F)(F)C(F)(F)CO [1H,1H,8H,8H-Perfluorooctane-1,8-diol] (in DMSO)
Protocol: as §1

[5] = compound: C=C(C)C(=O)OCCC(F)(F)C(F)(F)C(F)(F)C(F)(F)C(F)(F)C(F)(F)C(F)(F)C(F)(F)F [8:2 Fluorotelomer methacrylate] (in DMSO)
Protocol: as §1

Test System | level (log10) ([1]; 6700 nM) | level (log10) ([1]; 20000 nM) | level (log10) ([1]; 60000 nM) | level (log10) ([2]; 1500 nM) | level (log10) ([2]; 4400 nM) | level (log10) ([2]; 13000 nM) | level (log10) ([2]; 40000 nM) | level (log10) (Perfluorononanoic acid; 6700 nM) | level (log10) (Perfluorononanoic acid; 20000 nM) | level (log10) ([3]; 6700 nM) | level (log10) ([3]; 20000 nM) | level (log10) ([3]; 60000 nM) | level (log10) (Octafluoroadipic acid; 6700 nM) | level (log10) (Octafluoroadipic acid; 20000 nM) | level (log10) (Octafluoroadipic acid; 60000 nM) | level (log10) ([4]; 6700 nM) | level (log10) ([4]; 20000 nM) | level (log10) ([4]; 60000 nM) | level (log10) ([5]; 6700 nM) | level (log10) ([5]; 20000 nM)
CASM3C:CD87/uPAR | 0.0065 ± 0.021 | 0.025 ± 0.017 | 0.005 ± 0.021 | -0.028 ± 0.042 | 0.0045 ± 0.049 | -0.0165 ± 0.049 | -0.0555 ± 0.035 | -0.02 ± 0.0071 | 0.023 | -0.019 ± 0.024 | -0.026 ± 0.034 | -0.011 ± 0.018 | -0.012 ± 0.0057 | -0.014 ± 0.0085 | -0.0015 ± 0.0064 | 0.0025 ± 0.0021 | -0.0325 ± 0.0092 | -0.036 ± 0.038 | -0.006 ± 0.05 | -0.022 ± 0.033
CASM3C:CD106/VCAM-1 | 0.0335 ± 0.023 | 0.027 ± 0.065 | 0.0395 ± 0.013 | 0.0085 ± 0.057 | 0.0125 ± 0.0035 | 0.0055 ± 0.05 | -0.0355 ± 0.0035 | 0.013 ± 0.0042 | -0.0245 ± 0.1 | 0.025 ± 0.011 | 0.017 ± 0.011 | 0.032 ± 0.0085 | -0.0055 ± 0.011 | -0.011 ± 0.013 | -0.019 | 0.0055 ± 0.022 | 0.02 ± 0.0028 | 0.05 ± 0.0085 | -0.006 ± 0.0014 | -0.0145 ± 0.036
CASM3C:CD141/Thrombomodulin | 0.046 | 0.018 ± 0.017 | 0.032 ± 0.023 | 0.019 ± 0.037 | -0.019 ± 0.028 | -0.0185 ± 0.022 | 0.038 ± 0.078 | 0.0145 ± 0.0092 | 0.0335 ± 0.016 | -0.0135 ± 0.015 | -0.009 ± 0.0085 | 0.035 ± 0.0042 | 0.0115 ± 0.0021 | 0.0105 ± 0.021 | 0.0065 ± 0.022 | -0.018 ± 0.0071 | -0.02 ± 0.014 | -0.0005 ± 0.026 | -0.0195 ± 0.042 | 0.041 ± 0.082
CASM3C:CD142/Tissue Factor | -0.0605 ± 0.044 | -0.0695 ± 0.035 | -0.0195 ± 0.094 | -0.0305 ± 0.035 | -0.0125 ± 0.019 | -0.026 ± 0.024 | -0.04 ± 0.068 | -0.093 ± 0.064 | -0.115 ± 0.14 | -0.0165 ± 0.032 | -0.024 ± 0.013 | -0.0125 ± 0.0035 | -0.011 ± 0.0071 | -0.0045 ± 0.0092 | -0.0145 ± 0.00071 | 0 ± 0.014 | 0 ± 0.023 | 0.012 ± 0.041 | -0.023 ± 0.018 | -0.0195 ± 0.057
CASM3C:CXCL8/IL-8 | -0.0025 ± 0.021 | 0.0065 ± 0.047 | 0.015 ± 0.059 | 0.0015 ± 0.013 | -0.005 ± 0.0099 | -0.0105 ± 0.005 | -0.0005 ± 0.019 | 0.0075 ± 0.013 | 0.031 ± 0.033 | 0.002 ± 0.016 | -0.0085 ± 0.016 | -0.004 ± 0.011 | -0.0005 ± 0.0092 | -0.002 ± 0.0071 | 0.0045 ± 0.022 | -0.007 ± 0.027 | -0.0135 ± 0.022 | 0.007 ± 0.011 | -0.011 ± 0.0057 | -0.0055 ± 0.028
CASM3C:CXCL9/MIG | 0.021 ± 0.03 | 0.0095 ± 0.037 | 0.0005 ± 0.093 | 0.012 ± 0.035 | -0.008 ± 0.0099 | 0.0015 ± 0.005 | 0.037 ± 0.05 | 0.014 ± 0.028 | 0.005 ± 0.057 | 0.0135 ± 0.028 | 0.0135 ± 0.013 | 0.0415 ± 0.00071 | -0.0055 ± 0.0078 | -0.01 ± 0.0071 | 0.001 ± 0.021 | 0.0035 ± 0.012 | 0.016 ± 0.0028 | 0.0235 ± 0.021 | -0.017 ± 0.011 | 0.018 ± 0.042
CASM3C:HLA-DR | 0.016 ± 0.0028 | -0.014 ± 0.064 | 0.035 ± 0.025 | -0.011 ± 0.0028 | 0.009 ± 0.0085 | -0.0255 ± 0.028 | -0.009 ± 0.031 | -0.0105 ± 0.066 | -0.02 ± 0.0028 | -0.002 ± 0.0099 | -0.0115 ± 0.0021 | -0.005 ± 0.0085 | -0.0035 ± 0.019 | -0.0095 ± 0.032 | -0.0025 ± 0.0078 | -0.0005 ± 0.018 | -0.026 ± 0.016 | -0.014 ± 0.014 | -0.006 ± 0.027 | -0.0195 ± 0.046
CASM3C:IL-6 | 0.001 ± 0.041 | -0.0005 ± 0.021 | 0.0255 ± 0.036 | 0.021 ± 0.05 | -0.029 ± 0.0014 | -0.0305 ± 0.026 | 0.011 ± 0.088 | -0.016 ± 0.035 | -0.016 ± 0.024 | -0.0195 ± 0.021 | -0.0305 ± 0.026 | -0.013 ± 0.035 | -0.0225 ± 0.0092 | -0.0115 ± 0.0064 | 0.013 ± 0.061 | -0.014 ± 0.0014 | -0.02 ± 0.0099 | -0.0005 ± 0.04 | -0.0315 ± 0.022 | 0.0105 ± 0.084
CASM3C:LDLR | -0.0555 ± 0.086 | -0.0425 ± 0.044 | -0.0125 ± 0.00071 | -0.0275 ± 0.0021 | -0.0135 ± 0.00071 | -0.0215 ± 0.0092 | -0.0165 ± 0.011 | -0.05 ± 0.02 | -0.0415 ± 0.011 | -0.019 ± 0.0028 | -0.025 ± 0.0042 | 0.0225 ± 0.022 | -0.0215 ± 0.023 | -0.008 ± 0.018 | 0.029 ± 0.047 | 0.0045 ± 0.005 | -0.0015 ± 0.0035 | 0.0075 ± 0.032 | -0.0085 ± 0.018 | 0.0055 ± 0.026
CASM3C:M-CSF | 0.025 ± 0.024 | -0.0195 ± 0.022 | 0.0045 ± 0.063 | -0.0215 ± 0.0021 | -0.0305 ± 0.0035 | -0.039 ± 0.028 | -0.02 ± 0.047 | 0.045 ± 0.0099 | 0.0435 ± 0.028 | -0.0255 ± 0.026 | -0.035 ± 0.02 | -0.0345 ± 0.011 | -0.039 ± 0.02 | -0.024 ± 0.042 | 0.0155 ± 0.1 | -0.0185 ± 0.035 | -0.0215 ± 0.0078 | -0.012 ± 0.035 | -0.0325 ± 0.019 | -0.019 ± 0.067
CASM3C:PAI-I | -0.008 ± 0.0028 | -0.0015 ± 0.0035 | 0.005 ± 0.0071 | 0.006 ± 0.0057 | 0.0075 ± 0.0064 | 0.009 ± 0.0042 | 0.008 ± 0.0042 | 0.0015 ± 0.011 | -0.008 ± 0.017 | -0.0035 ± 0.012 | 0.0005 ± 0.0035 | 0.007 ± 0.0014 | 0.001 ± 0.0057 | -0.0015 ± 0.00071 | 0.002 ± 0.013 | -0.006 ± 0.0099 | -0.006 | 0.012 ± 0.0042 | 0.001 ± 0.0014 | 0.0065 ± 0.011
CASM3C:Proliferation | -0.018 ± 0.055 | 0.0175 ± 0.07 | -0.0245 ± 0.03 | 0.0285 ± 0.0092 | -0.026 | -0.028 ± 0.016 | -0.034 ± 0.028 | 0.0505 ± 0.059 | 0.021 ± 0.052 | -0.039 ± 0.079 | -0.039 ± 0.062 | -0.12 ± 0.03 | -0.066 ± 0.0071 | -0.004 ± 0.073 | 0.014 ± 0.051 | -0.01 ± 0.0057 | -0.024 ± 0.0099 | -0.0305 ± 0.044 | -0.01 ± 0.017 | -0.0245 ± 0.035
CASM3C:SRB | 0.0025 ± 0.0035 | 0.0015 ± 0.0021 | 0.0045 ± 0.00071 | 0.004 ± 0.0057 | 0.0045 ± 0.00071 | -0.0075 ± 0.0035 | -0.011 ± 0.0014 | -0.0005 ± 0.0064 | 0.002 | -0.0025 ± 0.0064 | -0.008 ± 0.0057 | -0.0275 ± 0.012 | -0.006 ± 0.0057 | -0.0025 ± 0.005 | -0.006 ± 0.0057 | -0.001 ± 0.0085 | -0.001 ± 0.0085 | -0.007 ± 0.011 | -0.006 ± 0.0028 | -0.0015 ± 0.005
CASM3C:Serum Amyloid A | -0.077 ± 0.014 | -0.058 ± 0.044 | -0.0135 ± 0.049 | 0.03 ± 0.051 | -0.027 ± 0.0028 | -0.0305 ± 0.032 | -0.013 ± 0.048 | -0.014 ± 0.018 | -0.012 ± 0.048 | 0.0105 ± 0.0092 | -0.0065 ± 0.00071 | 0.002 ± 0.045 | -0.032 ± 0.037 | -0.0515 ± 0.011 | 0.0105 ± 0.005 | -0.013 ± 0.038 | -0.0215 ± 0.033 | -0.022 ± 0.035 | -0.045 ± 0.0057 | -0.02 ± 0.078
